Assay results: BindingDB's records for PubMed 7965765 (University of Cincinnati, 1994)
Several values for one entry are separate records, joined by “and”; a condition that tells them apart may be missing. Identical values can stand only once.

Biological target: T1, Thromboxane A2 receptor (Homo sapiens, UniProt P21731)
T1 sequence (P21731 whole entry): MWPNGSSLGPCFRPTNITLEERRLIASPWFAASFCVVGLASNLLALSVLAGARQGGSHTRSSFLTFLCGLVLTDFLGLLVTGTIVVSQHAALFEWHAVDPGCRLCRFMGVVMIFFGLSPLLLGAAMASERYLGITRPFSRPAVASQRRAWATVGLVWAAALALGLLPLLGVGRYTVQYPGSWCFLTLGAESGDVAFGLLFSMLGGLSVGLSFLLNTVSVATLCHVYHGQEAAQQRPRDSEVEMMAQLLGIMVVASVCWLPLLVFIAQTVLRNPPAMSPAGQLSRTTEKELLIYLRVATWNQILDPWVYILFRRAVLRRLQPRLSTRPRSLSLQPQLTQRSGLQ

Row | Ki | SMILES
1 | 0.0037 µM and 0.0014 µM | O=C(O)CCC/C=C\C[C@@H]1[C@@H](/C=C/[C@@H](O)COc2ccc(I)cc2)[C@H]2CC[C@@H]1O2 [CAS_128719-90-4]
2 | 0.064 µM and 0.044 µM and 0.038 µM | CCCCCC(O)C=CC1C2COC(C2)C1CC=CCCCC(=O)O (centres undefined) [NSC_114865]
3 | 0.117 µM and 0.4 µM and 0.121 µM | CC1(C)C2CC(NCC(O)Cc3ccc(O)c(I)c3)C(CC=CCCCC(=O)O)C1C2 (centres undefined) [NSC_122979]
4 | 0.077 µM and 0.082 µM and 0.05 µM | CCCCC[C@H](O)/C=C/C1[C@@H](C/C=C\CCCC(=O)O)[C@H]2CO[C@@H]1C2 (some centres undefined) [U46619]
